# Reference: patent US11767520B2, “Compositions and methods for treating lung inflammation” (aTyr Pharma, Inc., priority 2017, dated 2023)
# Tests used:
# [1] = system: bleomycin-induced lung fibrosis; assay: Histological fibrosis (modified Ashcroft) score, BLM rat model, combination study (Example 3); assay type: in vivo, rat (male Sprague Dawley); settings: BLM-induced rats; alone or in combination, vs PO plus IV vehicles; data not shown
# Description: (§1) The five lung lobes were collected and weighed. On Day 17, the right accessory lobe was retained and desiccated to obtain dry weight. The remaining right lung lobes were inflated and fixed in 10% neutral buffered formalin and embedded in paraffin for histological analysis. An approximately 50 mg piece of the left lung lobe was snap frozen and stored at −80° C. for potential RNA analysis. The remainder of the lobe was also snap frozen until analyzed for collagen content.
# (§2) Sections for histology were stained using picrosirius red and were scored in a blinded fashion (1 score for each of the 3-4 lobes) by a veterinary pathologist using a modified Ashcroft score (Hubner et al., 2008). Hydroxyproline content was determined in the left lung lobe using a mass spectrometry method.
# (§3) Slides were read by a veterinary pathologist and each of the 3 lobes evaluated was assigned 4 score types [Ashcroft for fibrosis (scores range from 0 to 8), perivascular/peribronchiolar inflammatory cell infiltrate (scores range from 0 to 5), interstitial/alveolar inflammatory cell infiltrate (scores range from 0 to 5), type II pneumocyte hyperplasia (scores range from 0 to 5)].
# [2] = system: bleomycin-induced lung inflammation; assay: Histological inflammatory cell infiltrate and type II pneumocyte hyperplasia scores, BLM rat model (Example 2); assay type: in vivo, rat (male Sprague Dawley); settings: BLM-induced rats, Day 22; Nintedanib PO; Test Article = HRS^FC1 1 mg/kg on Days 2, 9 and 16; FIG. 5
# Description: as §1, with “weighed.” for “weighed. On Day 17, the right accessory lobe was retained and desiccated to obtain dry weight.”, “The” for “The remaining”
# as §2, with “4” for “3-4”
# as §3, with “4” for “3”, “scores” for “score types”
# [3] = system: bleomycin-induced lung fibrosis; assay: Histological fibrosis (modified Ashcroft) score, BLM mouse model (Example 1); assay type: in vivo, mouse (male C57Bl/6J); settings: BLM-induced mice
# Description: The five lung lobes were collected and isolated. Wet weight of the medial and accessory lung lobes was recorded. The lobes were then snap frozen and stored at <−70° C. until use for hydroxyproline analysis. The left lung lobe was inflated and fixed for 48 hours in 4% formaldehyde and embedded in paraffin for histological analysis. The cranial lung lobe was snap frozen and stored at −80° C. until shipment to Kinemed for the determination of new collagen formation.
# Sections of the left lung lobe were stained using Masson's Trichrome and were scored in a blinded fashion using a modified Ashcroft score (Hubner et al., BioTechniques. 44:507-511, 514-507, 2008). Hydroxyproline content was determined in the medial and accessory lung lobes using acid hydrolysis followed by a chromogenic assay (QuickZyme Biosciences, Leiden, Netherlands). Newly formed collagen was measured in the cranial lung lobe by Kinemed Inc., Emeryville, USA using the fraction of body water enriched in 2H for normalization.
# [4] = system: bleomycin-induced lung fibrosis; assay: Survival, BLM-induced lung fibrosis mouse model (Example 1, Table E2); assay type: in vivo, mouse (male C57Bl/6J); settings: for Survival (number of animals surviving to study day): Ninte. 60 mg/kg PO, BLM mice, 12 at start
# Description: Lung inflammation and fibrosis were induced in male C57Bl/6J mice by oropharyngeal administration of BLM. After the habituation phase mice were randomized based on body weight over the different groups. Under isoflurane anesthesia, 50 μl PBS or BLM was dripped onto the vocal cords facilitating aspiration. Mice were sacrificed at day 21 using a terminal bleed under isoflurane anesthesia.
# Daily oral treatments commenced on Day 0, while daily IV treatments commenced on Day 8. Dosing was planned to continue until the day of termination (Day 21), however, due to high mortality in IV treated groups (see results), IV dosing was skipped on Day 19 and Day 20. […] Subsequently, the mice received 8% D20 (Kinemed, Emeryville) drinking water until sacrifice to maintain labeling of newly formed collagen. Body weight was monitored three times a week.
# The study commenced with 7 animals in the non-diseased control group and 12 animals in the BLM-induced groups. Survival is show in Table E2 below.
# [5] = system: bleomycin-induced lung fibrosis; assay: Histological fibrosis (modified Ashcroft) score, BLM rat model (Example 2); assay type: in vivo, rat (male Sprague Dawley); settings: BLM-induced rats
# Description: as §1, with “weighed.” for “weighed. On Day 17, the right accessory lobe was retained and desiccated to obtain dry weight.”, “The” for “The remaining”
# as §2, with “4” for “3-4”
# as §3, with “4” for “3”, “scores” for “score types”
# Having noted the high variability in mean Ashcroft Index Scores within groups and also in lung pathology within each individual due to the focal nature of the model, we analyzed Ashcroft scores from all fields scored (4 per animal), which increased the number of observations to 24-32 in BLM-induced groups.
# [6] = system: bleomycin-induced respiratory impairment; assay: Respiratory measurements by whole body plethysmography, BLM rat model (Example 2, Table E4); assay type: in vivo, rat (male Sprague Dawley); settings: for Expiratory Time / Inspiratory Time / Peak Expiratory Flow / Peak Inspiratory Flow / Tidal Volume / Respiratory Rate / Respiratory Minute Volume: Ninte. 60 mg/kg PO daily from Day 1, mean; for Respiratory Rate: in breaths/min (unit assumed); for Respiratory Minute Volume: in mL/min (unit assumed)
# Description: PBS or BLM was administered under isoflurane anesthesia.
# In-life, body weights were measured and clinical observations were conducted daily. On Day 8 and Day 15, animals were removed from their home cages and placed individually into whole body plethysmography chambers. After a 20-minute acclimatization phase, respiratory parameters were recorded for 10 minutes.
smiles,measurement,setting,value
"COC(=O)c1ccc2c(c1)NC(=O)/C2=C(\Nc1ccc(N(C)C(=O)CN2CCN(C)CC2)cc1)c1ccccc1 [Nintedanib, nintedanib]",Interstitial inflammatory cell infiltrate (as printed in the Ashcroft score paragraph),[1],no significant effect
same,Interstitial/alveolar inflammatory cell infiltrate score,[2],no effect on interstitial inflammatory cell infiltrate
same,"Group mean histological (Ashcroft) score, significance vs respective vehicle","[3]; left lung lobe, Day 21, dexamethasone/Nintedanib PO, Test Article = HisRS1^N8 IV",did not result in a significant decrease
same,Overall effects in this experiment,[3]; Nintedanib 60 mg/kg/dose from day of BLM instillation,no significant effects
same,Survival rate,"[4]; BLM-induced mice to Day 21, daily PO from Day 0: dexamethasone 0.25 mg/kg, Nintedanib 60 mg/kg",92%
same,Survival (number of animals surviving to study day),[4]; Day 11,12
same,Survival (number of animals surviving to study day),[4]; Day 12,12
same,Survival (number of animals surviving to study day),[4]; Day 13,12
same,Survival (number of animals surviving to study day),[4]; Day 14,12
same,Survival (number of animals surviving to study day),[4]; Day 15,12
same,Survival (number of animals surviving to study day),[4]; Day 16,12
same,Survival (number of animals surviving to study day),[4]; Day 17,12
same,Survival (number of animals surviving to study day),[4]; Day 18,12
same,Survival (number of animals surviving to study day),[4]; Day 19,12
same,Survival (number of animals surviving to study day),[4]; Day 20,12
same,Survival (number of animals surviving to study day),[4]; Day 21,11
same,Decrease of group mean Ashcroft score vs respective vehicle,"[5]; Day 22, Nintedanib PO, Test Article = HRS^FC1 1 mg/kg IV on Days 2, 9 and 16, not significant",5%
same,"Group mean Ashcroft score, significance vs respective vehicle","[5]; Day 22, Nintedanib PO, Test Article = HRS^FC1 IV",did not meet statistical criteria
same,Overall effects in this experiment,"[5]; Nintedanib (50 mg/kg/dose) starting on Day 9, as printed in Summary",no significant effects
same,BLM-induced alterations in respiratory parameters,"[6]; BLM-induced rats, Day 15, Nintedanib 60 mg/kg PO, Test Article = HRS^FC1 IV weekly",did not significantly impact
same,Respiratory minute volume (RMV),"[6]; BLM-induced rats, Day 15, Nintedanib PO, Test Article = HRS^FC1 0.1-3 mg/kg from Day 9 or Day 2, FIG. 3",no impact on RMV
same,Expiratory Time,[6]; Day 8,0.12 s
same,Inspiratory Time,[6]; Day 8,0.09 s
same,Peak Expiratory Flow,[6]; Day 8,28.4
same,Peak Inspiratory Flow,[6]; Day 8,26.7
same,Tidal Volume,[6]; Day 8,1.5 mL
same,Respiratory Rate,[6]; Day 8,313.0
same,Respiratory Minute Volume,[6]; Day 8,477.5
same,Expiratory Time,[6]; Day 15,0.12 s
same,Inspiratory Time,[6]; Day 15,0.09 s
same,Peak Expiratory Flow,[6]; Day 15,28.8
same,Peak Inspiratory Flow,[6]; Day 15,29.0
same,Tidal Volume,[6]; Day 15,1.6 mL
same,Respiratory Rate,[6]; Day 15,317.3
same,Respiratory Minute Volume,[6]; Day 15,534.6
